Measured values reported in patent publication US20160022818A1, “PHARMACEUTICAL FORMULATION COMPRISING LIPASE INHIBITOR HAVING INCREASED DISSOLUTION RATE AND REDUCED SIDE EFFECTS, AND METHOD FOR PREPARING SAME” (UNIVERSITY-INDUSTRY FOUNDATION, YONSEI UNIVERSITY, priority 2013, published 2016).

Columns and labels:
[1] = Comparative dissolution test; format: physicochemical; details: 900 ml 1% sodium lauryl sulfate, paddle 75 rpm, HPLC-UV
Procedure: A comparative dissolution test was performed on the compositions prepared by Examples 1 to 3 and on the compositions prepared by Comparative Examples 1 and 2.

[2] = Oily leakage test using SD-rat model; format: in vivo; details: of 26 SD-rats; 0.5 ml olive oil, oral 5 mg orlistat per kg, 6 hours later
Procedure: 7-week old SD-rats were used, 0.5 ml of an olive oil was administered for each group, and a drug was suspended in a 0.25% HPMC solution to be orally administered to the rats (corresponds to 5 mg of orlistat per kg of the body weight). 6 hours later, the evaluation was assessed through the number of rats having oily leakage from their anuses.

[3] = system: triglyceride levels in blood; experiment: Measurement of triglyceride levels in blood by using SD-rat model; format: in vivo; details: SD-rats, oral 2.5 mg orlistat per kg
Procedure: Using 7-week old SD-rats (Samtaco Bio Korea Inc.), 1 ml of an olive oil (Samchun Pure Chemical Co., Ltd., Korea) was administered to each group and a drug suspended in a 0.25% HPMC (hydroxypropylmethyl cellulose) solution (Shin-Etsu chemical, Japan) was orally administered to the rats (corresponds to 2.5 mg of orlistat per kg of the body weight). The control group was administered with distilled water instead of the drug suspension. The blood of rats was collected for a fixed time interval, the triglyceride levels in the blood were measured by Cleantech TG-S of Asan Pharmaceutical, and, with the triglyceride level in the blood before testing used as a standard, changes in triglyceride levels in the blood after administration of an olive oil and drugs were plotted in FIG. 4 and Table 4.

Question: With CCCCCCCCCCC[C@@H](C[C@@H]1OC(=O)[C@H]1CCCCCC)OC(=O)[C@H](CC(C)C)NC=O [Comparative Example 1, orlistat] as the compound, how does the “Dissolution rate at 10 minutes” value ([1]; Table 1) read?
Answer: 7.0%

Question: What about the “Dissolution rate at 10 minutes” value ([1]; Table 3, various porous adsorbents) of the same compound?
Answer: 7.0%

Question: What about the “Population having oily leakage” value [2] of the same compound?
Answer: 17 rats

Question: What about the “AUC0->12 h (triglyceride level in blood)” value ([3]; 1 ml olive oil) of the same compound?
Answer: 648.0 ± 203.2 mg·h/dL

Question: What about the “Cmax (triglyceride level in blood)” value ([3]; 1 ml olive oil) of the same compound?
Answer: 140.7 ± 64.1 mg/dL

Question: And the “Triglyceride level in blood (words, FIG. 4)” value ([3]; olive oil)?
Answer: did not show an increase
